Reference: patent US10543198B2 (Celgene Quanticel Research, Inc., priority 2014, dated 2020)

Assays:
full-length human LSD1 = full-length human LSD1 (Homo sapiens (Human), UniProt O60341); assay: In Vitro Enzyme Inhibition Assay - LSD-1 (TR-FRET); format: biochemical; conditions: 0.1 nM LSD1, H3K4me1-biotin peptide
Protocol: This assay determines the ability of a test compound to inhibit LSD1 demethylase activity.
The enzymatic assay of LSD1 activity is based on Time Resolved-Fluorescence Resonance Energy Transfer (TR-FRET) detection.
The ability of the compounds disclosed herein to inhibit LSD1 activity was quantified and the respective IC50 value was determined.

THP-1 (AML) cells = assay: LSD1 CD11b Cellular Assay (flow cytometry); format: cell-based; conditions: CD11b expression in THP-1 cells, 4 days incubation
Protocol: To analyze LSD1 inhibitor efficacy in cells, a CD11b flow cytometry assay was performed. LSD1 inhibition induces CD11b expression in THP-1 (AML) cells which can be measured by flow cytometry. […] LSD1 test compounds were serially diluted in DMSO. The dilutions were added to each well accordingly to a final concentration of 0.2% DMSO. The cells were incubated at 37 degrees Celsius in 5% CO2 for 4 days. 250 μL of each well was transferred to a well in a 96 well round bottom plate. The plate was centrifuged at 1200 rpm at 4 degrees Celsius in a Beckman Coulter Alegra 6KR centrifuge for 5 minutes. The media was removed leaving the cells at the bottom of the wells. The cells were washed in 100 μL cold HBSS (Hank's Balanced Salt Solution) plus 2% BSA (Bovine Serum Albumin) solution and centrifuged at 1200 rpm at 4 degrees Celsius for 5 minutes. The wash was removed. […] The cells were centrifuged and washed two times in 100 μl HBSS plus 2% BSA. After the final spin the cells were resuspended in 100 μL HBSS plus 2% BSA containing 1 ug/mL DAPI (4′,6-diamidino-2-phenylindole). The cells were then analyzed by flow cytometry in a BD FACSAria machine. Cells were analyzed for CD11b expression. The percent of CD11b expressing cells for each inhibitor concentration was used to determine an IC50 curve for each compound analyzed.

IC50 (full-length human LSD1) [nM]	IC50 (THP-1 (AML) cells; Homo sapiens, 96 h) [nM]	Compound	IC50 (THP-1 (AML) cells) [nM]
< 100	< 100	Cn1cc2cc(-c3ncc(N4CCC(N)CC4)nc3-c3ccc(C#N)c(F)c3)ccc2n1 [Example 49, 4-[6-(4-aminopiperidin-1-yl)-3-(2-methyl-2H-indazol-5-yl)pyrazin-2-yl]-2-fluorobenzonitrile]	–
< 100	< 100	Cn1nnc2cc(-c3ncc(N4CCC(N)CC4)nc3-c3ccc(C#N)c(F)c3)cnc21 [Example 54, 4-[6-(4-aminopiperidin-1-yl)-3-{3-methyl-3H-[1,2,3]triazolo[4,5-b]pyridin-6-yl}pyrazin-2-yl]-2-fluorobenzonitrile]	–
< 100	< 100	Cn1nnc2cc(-c3ncc(N4CCC(N)CC4)nc3-c3ccc(C#N)c(F)c3)ccc21 [Example 53, 4-[6-(4-aminopiperidin-1-yl)-3-(1-methyl-1H-1,2,3-benzotriazol-5-yl)pyrazin-2-yl]-2-fluorobenzonitrile]	–
< 100	< 100	CNC1CCN(c2cnc(-c3ccc4c(c3)nnn4C)c(-c3ccc(C#N)c(F)c3)n2)CC1 [Example 56, 2-fluoro-4-{6-[4-(methylamino)piperidyl]-3-(1-methylbenzotriazol-5-yl)pyrazin-2-yl}benzenecarbonitrile]	–
< 100	< 100	CNC1CCN(c2cnc(-c3ccc4c(c3)ncn4C(C)C)c(-c3ccc(C#N)c(F)c3)n2)CC1 [Example 68, 2-fluoro-4-[6-[4-(methylamino)piperidin-1-yl]-3-(1-propan-2-ylbenzimidazol-5-yl)pyrazin-2-yl]benzonitrile]	–
< 100	< 100	CCn1cnc2cc(-c3ncc(N4CCC(N)CC4)nc3-c3ccc(C#N)c(F)c3)c(F)c(F)c21 [Example 74, 4-[6-(4-aminopiperidin-1-yl)-3-(1-ethyl-6,7-difluorobenzimidazol-5-yl)pyrazin-2-yl]-2-fluorobenzonitrile]	–
< 100	< 100	CNC1CCN(c2cnc(-c3cc4ncn(C)c4cc3F)c(-c3ccc(C#N)c(F)c3)n2)CC1 [Example 61, 2-fluoro-4-[3-(6-fluoro-1-methylbenzimidazol-5-yl)-6-[4-(methylamino)piperidin-1-yl]pyrazin-2-yl]benzonitrile]	–
< 100	< 100	CNC1CCN(c2cnc(-c3cc4ncn(C(C)C)c4cc3F)c(-c3ccc(C#N)c(F)c3)n2)CC1 [Example 67, 2-fluoro-4-[3-(6-fluoro-1-propan-2-ylbenzimidazol-5-yl)-6-[4-(methylamino)piperidin-1-yl]pyrazin-2-yl]benzonitrile]	–
< 100	< 100	Cn1cc2ccc(-c3ncc(N4CCC(N)CC4)nc3-c3ccc(C#N)c(F)c3)cc2n1 [Example 52, 4-[6-(4-aminopiperidin-1-yl)-3-(2-methyl-2H-indazol-6-yl)pyrazin-2-yl]-2-fluorobenzonitrile]	–
< 100	< 100	CNC1CCN(c2cnc(-c3ccc4c(c3)ncn4C)c(-c3ccc(C#N)c(F)c3)n2)CC1 [Example 65, 2-fluoro-4-[6-[4-(methylamino)piperidin-1-yl]-3-(1-methylbenzimidazol-5-yl)pyrazin-2-yl]benzonitrile]	–
< 100	< 100	CC(C)n1cnc2cc(-c3ncc(N4CCC(N)CC4)nc3-c3ccc(C#N)c(F)c3)ccc21 [Example 72, 4-[6-(4-aminopiperidin-1-yl)-3-(1-propan-2-ylbenzimidazol-5-yl)pyrazin-2-yl]-2-fluorobenzonitrile]	–
< 100	< 100	Cn1ncc2cc(-c3ncc(N4CCC(N)CC4)nc3-c3ccc(C#N)c(F)c3)ccc21 [Example 51, 4-[6-(4-aminopiperidin-1-yl)-3-(1-methyl-1H-indazol-5-yl)pyrazin-2-yl]-2-fluorobenzonitrile]	–
< 100	< 100	CCn1cnc2cc(-c3ncc(N4CCC(NC)CC4)nc3-c3ccc(C#N)c(F)c3)c(F)cc21 [Example 69, 4-[3-(1-ethyl-6-fluorobenzimidazol-5-yl)-6-[4-(methylamino)piperidin-1-yl]pyrazin-2-yl]-2-fluorobenzonitrile]	–
< 100	< 100	CNC1CCN(c2cnc(-c3ccc4nn(C)cc4c3)c(-c3ccc(C#N)c(F)c3)n2)CC1 [Example 50, 2-fluoro-4-[3-(2-methyl-2H-indazol-5-yl)-6-[4-(methylamino)piperidin-1-yl]pyrazin-2-yl]benzonitrile]	–
< 100	< 100	Cn1cnc2cc(-c3ncc(N4CCC(N)CC4)nc3-c3ccc(C#N)c(F)c3)c(F)c(F)c21 [Example 75, 4-[6-(4-aminopiperidin-1-yl)-3-(6,7-difluoro-1-methylbenzimidazol-5-yl)pyrazin-2-yl]-2-fluorobenzonitrile]	–
–	–	4-[5-(4-methylphenyl)-1-[[(2R)-morpholin-2-yl]methyl]pyrrolo[3,2-b]pyridin-6-yl]benzonitrile [Example 48]	> 10000
< 100	< 100	CC(C)n1cnc2cc(-c3ncc(N4CCC(N)CC4)nc3-c3ccc(C#N)c(F)c3)c(F)c(F)c21 [Example 73, 4-[6-(4-aminopiperidin-1-yl)-3-(6,7-difluoro-1-propan-2-ylbenzimidazol-5-yl)pyrazin-2-yl]-2-fluorobenzonitrile]	–
< 100	< 100	CNC1CCN(c2cnc(-c3ccc(N(C)C)nc3)c(-c3ccc(C#N)c(F)c3)n2)CC1 [Example 57, 4-{3-[6-(dimethylamino)(3-pyridyl)]-6-[4-(methylamino)piperidyl]pyrazin-2-yl}-2-fluorobenzenecarbonitrile]	–
< 100	< 100	CNC1CCN(c2cnc(-c3ccc(OC)c(F)c3)c(-c3ccc(C#N)c(F)c3)n2)CC1 [Example 63]	–
< 100	< 100	CNC1CCN(c2cnc(-c3cnc4c(cnn4C)c3)c(-c3ccc(C#N)c(F)c3)n2)CC1 [Example 59, 2-fluoro-4-{6-[4-(methylamino)piperidyl]-3-(1-methylpyrazolo[5,4-b]pyridin-5-yl)pyrazin-2-yl}benzenecarbonitrile]	–
< 100	< 100	CCn1cnc2cc(-c3ncc(N4CCC(N)CC4)nc3-c3ccc(C#N)c(F)c3)c(F)cc21 [Example 71, 4-[6-(4-aminopiperidin-1-yl)-3-(1-ethyl-6-fluorobenzimidazol-5-yl)pyrazin-2-yl]-2-fluorobenzonitrile]	–
< 100	< 100	CNC1CCN(c2cnc(C#CC(C)(C)O)c(-c3ccc(C#N)c(F)c3)n2)CC1 [Example 66, 2-fluoro-4-[3-(3-hydroxy-3-methylbut-1-ynyl)-6-[4-(methylamino)piperidin-1-yl]pyrazin-2-yl]benzonitrile]	–
< 100	< 100	CNC1CCN(c2cnc(-c3cnc(N(C)C)nc3)c(-c3ccc(C#N)c(F)c3)n2)CC1 [Example 58, 4-{3-[2-(dimethylamino)pyrimidin-5-yl]-6-[4-(methylamino)piperidyl]pyrazin-2-yl}-2-fluorobenzenecarbonitrile]	–
< 100	–	Cc1ccc(-c2nc3cnn(C[C@H]4[C@@H]5CNC[C@@H]54)c3cc2-c2ccc(C#N)cc2)cc1 [Example 15, 4-[1-[[(1S,5R)-3-azabicyclo[3.1.0]hexan-6-yl]methyl]-5-(4-methylphenyl)pyrazolo[4,3-b]pyridin-6-yl]benzonitrile]	–
< 100	–	Cc1ccc(-c2cnc(OC[C@@H]3CCNC3)nc2-c2ccc(C#N)cc2)cc1 [Example 20, 4-[5-(4-methylphenyl)-2-[(3R)-pyrrolidin-3-ylmethoxy]pyrimidin-4-yl]benzonitrile]	–
< 100	–	Cc1ccc(-c2cnc(N3CC[C@@H]4CNC[C@@H]4CC3)nc2-c2ccc(C#N)cc2)cc1 [Example 23, 4-{2-[(3aR,8aS)-decahydropyrrolo[3,4-d]azepin-6-yl]-5-(4-methylphenyl)pyrimidin-4-yl}benzonitrile]	–
< 100	–	Cc1ccc(-c2cnc(NCC3(F)CCNC3)nc2-c2ccc(C#N)cc2)cc1 (racemic) [Example 28, (±)-4-(2-{[(3-fluoropyrrolidin-3-yl)methyl]amino}-5-(4-methylphenyl)pyrimidin-4-yl)benzonitrile]	–
< 100	–	Cc1ccc(-c2cc(NC[C@H]3[C@@H]4CNC[C@@H]43)nn2-c2ccc(C#N)cc2)cc1 [Example 47, 4-[3-[[(1S,5R)-3-azabicyclo[3.1.0]hexan-6-yl]methylamino]-5-(4-methylphenyl)pyrazol-1-yl]benzonitrile]	–

Compound	IC50 (full-length human LSD1) [nM]	IC50 (THP-1 (AML) cells; Homo sapiens, 96 h) [nM]	IC50 (THP-1 (AML) cells) [nM]
Cc1ccc(-c2nc3ccn(CC4(F)CCNC4)c3cc2-c2ccc(C#N)cc2)cc1 (stereo not shown) [Example 9, 4-[1-[(3-fluoropyrroridin-3-yl)methyl]-5-(4-methylphenyl)pyrrolo[3,2-b]pyridin-6-yl]benzonitrile]	< 100	100 to 1000	–
